# Laboratory results reported in US20140039044A1, “Hydroxylated Polymethoxyflavone Compositions” (WLLGEN, INC., priority 2006, published 2014).
# Read-outs that look alike come from different tables or passages of the source.
# Tests used:
# Assay type in all cases: cell-based, human
# AGS cells = test: Cell survival assay (antiproliferative IC50); conditions: AGS cells, read-out: Antiproliferative IC50
# Method: (§1) Human colon carcinoma COLO205 and HT-29 cell lines (American Type Culture Collection (ATTC), Manassas, Va.) and the leukemia cell line HL-60 were maintained at 37° C. in 5% CO2 air in RPMI 1640 medium supplemented with 10% heat-inactivated fetal bovine serum (Gibco BRL, Grand Island, N.Y.), 100 units/mL penicillin, 100 μg/mL streptomycin and 2 mM 1-glutamine. The human gastric carcinoma AGS cell line (CCRC 60102), obtained from the Food Industry Research and Development Institute (Hsinchu, Taiwan), was maintained as described above, except that DMEM/F 12 was used as the medium rather than the RPMI 1640 medium. The human breast carcinoma MCF-7 cell line MCF-7 (ATTC) was cultured in RPMI 1640 medium supplemented with 5% fetal calf serum at 37° C. in a humidified atmosphere of 5% CO2 in air. The mouse macrophage cell line RAW 264.7 was maintained in RPMI 1640 supplemented with 100 U/ml penicillin, 100 μg/ml streptomycin, and 10% heat-inactivated fetal calf serum.
# (§2) Cancer cells (2×10^5) were plated in 12-well Petri dishes. The next day, the medium was changed and treated with different concentration of the test compounds or compositions for 24 h. Where individual compounds were to be tested, stock solutions of the compound was prepared to contain 200 μM of the individual hydroxylated or non-hydroxylated PMF in dimethylsulfoxide (DMSO). Control cells were treated with DMSO to a final concentration of 0.05% (v/v). Depending on the objective of the particular experiment, cells were treating with test compound or composition for 1, 3 or 6 days. At the end of incubation, cells were harvested for cell count using a hemocytometer and measuring the cellular total nucleic acid content with the CyQUANT Cell Proliferation Assay Kit (Molecular Probes).
# (§3) 1 N PMF and 6 N PMF compositions containing hydroxylated PMFs, prepared as described in Section 8.3 above, 70% PMF OPE and 5,6,7,8,3′,4′-hexamethoxyflavone (nobiletin) were tested for antiproliferative activity and apoptosis-inducing activity in HL-60, AGS and COLO205 cells as described in Section 8.4 above. Antiproliferative and apoptosis-inducing activities were derived as IC50 values and AC50, values, respectively, where AC50 is the concentration required for 50% apoptosis.
# (§4) The PMF compounds were assayed in vitro for cell growth inhibition and for their ability to induce apoptosis in various human cancer cells, including HL-60, AGS, COLO 205, and HT-29 cells, using methods described in Section 8.4 above. Antiproliferative (IC50) and apoptosis-inducing activity (AC50) of PMFs in the HL-60, AGS, COLO 205, and HT-29 cells are reported in Table 9, where *P<0.05, **P<0.01 and ***P<0.001 indicate statistically significant differences from the control group.
# COLO205 cells [1] = test: Cell survival assay (antiproliferative IC50); conditions: COLO205 cells, read-out: Antiproliferative IC50
# Method: as §1, §2, §3, §4
# HL-60 cells [2] = test: Cell survival assay (antiproliferative IC50); conditions: HL-60 cells, read-out: Antiproliferative IC50
# Method: as §1, §2, §3, §4
# HT-29 cells = test: Apoptotic ratio by propidium iodide flow cytometry (AC50); conditions: read-out: Apoptosis-inducing AC50
# Method: (§5) The human cancer cells (2×10^5) were cultured in 60-mm Petri dishes and incubated for 24 h. After treated with test compounds for 24 h, the cells were then harvested, washed with PBS resuspended in 200 μL of PBS, and fixed in 800 μL of iced 100% ethanol at −20° C. After being left to stand overnight, the cell pellets were collected by centrifugation, resuspended in 1 mL of hypotonic buffer (0.5% Triton X-100 in PBS and 0.5 μg/mL RNase) and incubated at 37° C. for 30 min. Next, 1 mL of propidium iodide solution (50 μg/mL) was added, and the mixture was allowed to stand on ice for 30 min. Fluorescence emitted from the propidium iodide-DNA complex was quantitated after excitation of the fluorescent dye by FACScan cytometry (Becton Dickinson, San Jose, Calif.).
# as §4
# HL-60 cells [3] = test: Cell cycle distribution by flow cytometry; conditions: 24 h; for Cell Cycle Distribution G0/G1 / Cell Cycle Distribution G2/M / Cell Cycle Distribution S: Table 10
# Method: as §5
# The effects of the hydrolyzed PMF-enriched compositions, nobiletin and 70% PMF OPE on cell cycle distribution were studied, following the procedures described in Section 8.4. Results for cell cycle distribution in HL-60 cells, COLO205 cells and AGS cells are provided in Table 5, Table 6 and Table 7, respectively. […] In HL-60 cells, G2/M arrest predominated in cells treated with 6N PMF concentrations ≧5 μM and with 1N PMF concentrations ≧25 μM.
# Compounds A-K were evaluated in terms of their effects in arresting cell cycle progression by observing cell cycle phase distribution in cells treated with the compounds. Cells were treated with 5, 10, 25, 50, and 100 μM of one of compound A-K or DMSO (control) for 24 h and subjected to flow cytometric analysis after staining their DNA, as described above.
# COLO205 cells [4] = test: Cell cycle distribution by flow cytometry; conditions: 24 h; for Cell Cycle Distribution G0/G1 / Cell Cycle Distribution G2/M / Cell Cycle Distribution S: COLO205 cells, Table 12
# In short: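 Human cancer cells (2×10^5 per dish) exposed 24 h to compound at 5–100 μM, or DMSO. Cells ethanol-fixed at −20° C overnight, RNase/Triton-treated at 37° C for 30 min, then stained with propidium iodide. DNA content read by FACScan flow cytometry to give phase distribution.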
Structure (SMILES),Cell Cycle Distribution G0/G1 (HL-60 cells [3]; 5 μM),Cell Cycle Distribution G2/M (HL-60 cells [3]; 5 μM),Cell Cycle Distribution S (HL-60 cells [3]; 5 μM),Cell Cycle Distribution G0/G1 (HL-60 cells [3]; 10 μM),Cell Cycle Distribution G2/M (HL-60 cells [3]; 10 μM),Cell Cycle Distribution S (HL-60 cells [3]; 10 μM),Cell Cycle Distribution G0/G1 (HL-60 cells [3]; 25 μM),Cell Cycle Distribution G2/M (HL-60 cells [3]; 25 μM),Cell Cycle Distribution S (HL-60 cells [3]; 25 μM),Cell Cycle Distribution G0/G1 (HL-60 cells [3]; 50 μM),Cell Cycle Distribution G2/M (HL-60 cells [3]; 50 μM),Cell Cycle Distribution S (HL-60 cells [3]; 50 μM),Cell Cycle Distribution G0/G1 (HL-60 cells [3]; 100 μM),Cell Cycle Distribution G2/M (HL-60 cells [3]; 100 μM),Cell Cycle Distribution S (HL-60 cells [3]; 100 μM),"Cell cycle arrest, in words (HL-60 cells [3]; 25-100 μM)",Cell Cycle Distribution G0/G1 (COLO205 cells [4]; 5 μM),Cell Cycle Distribution G2/M (COLO205 cells [4]; 5 μM),Cell Cycle Distribution S (COLO205 cells [4]; 5 μM),Cell Cycle Distribution G0/G1 (COLO205 cells [4]; 10 μM),further results
"COc1ccc(-c2oc3c(OC)c(OC)c(OC)c(OC)c3c(=O)c2OC)cc1OC [D, 3,5,6,7,8,3,4-heptamethoxyflavone, reference compound]",50.66 ± 1.20,4.88 ± 0.49,44.46 ± 0.49,52.79 ± 0.99,5.09 ± 0.35,42.12 ± 0.49,57.63 ± 0.14,0.09 ± 0.71,42.28 ± 0.57,80.79 ± 0.71,0.21 ± 0.42,19.00 ± 0.78,84.06 ± 0.57,0.47 ± 0.21,15.47 ± 1.06,significant G1 arrest,60.81 ± 0.62,0.04 ± 0.05,39.16 ± 0.67,60.58 ± 0.57,IC50 (AGS cells): > 100 µM; IC50 (COLO205 cells [1]): 62.5 ± 1.81 µM; IC50 (HL-60 cells [2]): 54.4 ± 0.9 µM; AC50 (HT-29 cells): > 100 µM; Cell Cycle Distribution G2/M (COLO205 cells [4]; 10 μM): 0.40 ± 0.04; Cell Cycle Distribution S (COLO205 cells [4]; 10 μM): 39.02 ± 0.61; Cell Cycle Distribution G0/G1 (COLO205 cells [4]; 25 μM): 61.91 ± 0.35; Cell Cycle Distribution G2/M (COLO205 cells [4]; 25 μM): 9.28 ± 0.59; Cell Cycle Distribution S (COLO205 cells [4]; 25 μM): 28.82 ± 0.23; Cell Cycle Distribution G0/G1 (COLO205 cells [4]; 50 μM): 68.87 ± 1.53; Cell Cycle Distribution G2/M (COLO205 cells [4]; 50 μM): 6.10 ± 2.64; Cell Cycle Distribution S (COLO205 cells [4]; 50 μM): 25.03 ± 1.12; Cell Cycle Distribution G0/G1 (COLO205 cells [4]; 100 μM): 75.17 ± 0.05; Cell Cycle Distribution G2/M (COLO205 cells [4]; 100 μM): 5.72 ± 0.64; Cell Cycle Distribution S (COLO205 cells [4]; 100 μM): 19.12 ± 0.69
"COc1ccc(-c2oc3c(OC)c(OC)c(OC)c(O)c3c(=O)c2OC)cc1OC [Compound C, 5-hydroxy-3,6,7,8,3′,4′-hexamethoxyflavone]",70.99 ± 0.49,0.95 ± 0.35,28.07 ± 0.99,78.47 ± 0.64,19.89 ± 1.06,1.64 ± 0.42,40.12 ± 0.64,20.37 ± 0.57,39.51 ± 0.57,51.42 ± 1.13,11.64 ± 1.06,36.94 ± 0.85,50.23 ± 1.91,18.74 ± 1.56,31.03 ± 1.06,significant G1 arrest,63.55 ± 0.99,6.16 ± 0.37,30.29 ± 0.61,75.57 ± 0.83,"IC50 (AGS cells; Homo sapiens): 17 ± 0.21 µM; IC50 (COLO205 cells [1]; Homo sapiens, COLO 205): 67 ± 1.4 µM; IC50 (HL-60 cells [2]; Homo sapiens): 8.45 ± 1.6 µM; AC50 (HT-29 cells; Homo sapiens): > 100 µM; Cell cycle arrest, in words (HL-60 cells [3]; 25 μM): decrease in G1 arrest was accompanied by an increase in G2/M phase cell population; Cell Cycle Distribution G2/M (COLO205 cells [4]; 10 μM): 6.37 ± 1.50; Cell Cycle Distribution S (COLO205 cells [4]; 10 μM): 18.07 ± 0.67; Cell Cycle Distribution G0/G1 (COLO205 cells [4]; 25 μM): 74.27 ± 0.83; Cell Cycle Distribution G2/M (COLO205 cells [4]; 25 μM): 0.43 ± 0.20; Cell Cycle Distribution S (COLO205 cells [4]; 25 μM): 25.30 ± 0.63; Cell Cycle Distribution G0/G1 (COLO205 cells [4]; 50 μM): 58.30 ± 0.57; Cell Cycle Distribution G2/M (COLO205 cells [4]; 50 μM): 16.70 ± 0.59; Cell Cycle Distribution S (COLO205 cells [4]; 50 μM): 25.00 ± 1.16; Cell Cycle Distribution G0/G1 (COLO205 cells [4]; 100 μM): 51.84 ± 0.31; Cell Cycle Distribution G2/M (COLO205 cells [4]; 100 μM): 19.04 ± 0.39; Cell Cycle Distribution S (COLO205 cells [4]; 100 μM): 29.13 ± 0.70; Cell cycle arrest, in words (COLO205 cells [4]; COLO 205 cells, 5-100 μM): decrease in G1 arrest accompanied by an increase in G2/M phase cell population"
